Results published in PubChem BioAssay (NCI).
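Cells were grown in 96-well plates and exposed to each compound for 48 hours at five concentrations; endpoints were interpolated linearly between bracketing concentrations, or set to the highest concentration if not reached. At the GI50, growth is halved. TGI denotes the concentration required for complete inhibition of growth.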 Where a SMILES comes first, the peptide text is derived from it. [ ]: non-standard residue; d: D form. The star is where a group is joined. Palmitoyl = CCCCCCCCCCCCCCCC(=O)*; Cbz = O=C(OCc1ccccc1)*; Aib = CC(C)(N)C(=O)O; OBn = c1ccc(CO*)cc1

Key:
Assay in all cases: NCI-60 cell line screen, 48 h
OVCAR-5 ovarian = test system: OVCAR-5 ovarian
MDA-MB-231 breast = test system: MDA-MB-231 breast
HOP-92 NSCLC = test system: HOP-92 NSCLC
M14 melanoma = test system: M14 melanoma
HL-60(TB) leukemia = test system: HL-60(TB) leukemia
HOP-62 NSCLC = test system: HOP-62 NSCLC
K-562 leukemia = test system: K-562 leukemia
OVCAR-8 ovarian = test system: OVCAR-8 ovarian
MCF7 breast = test system: MCF7 breast
SK-MEL-2 melanoma = test system: SK-MEL-2 melanoma

Row | SMILES | TGI (OVCAR-5 ovarian) [µM] | TGI (MDA-MB-231 breast) [µM] | TGI (HOP-92 NSCLC) [µM] | TGI (M14 melanoma) [µM] | TGI (HL-60(TB) leukemia) [µM] | TGI (HOP-62 NSCLC) [µM] | TGI (K-562 leukemia) [µM] | TGI (OVCAR-8 ovarian) [µM] | TGI (MCF7 breast) [µM] | TGI (SK-MEL-2 melanoma) [µM] | GI50 (OVCAR-5 ovarian) [µM] | GI50 (MDA-MB-231 breast) [µM] | GI50 (HOP-92 NSCLC) [µM] | GI50 (M14 melanoma) [µM] | GI50 (HL-60(TB) leukemia) [µM] | GI50 (HOP-62 NSCLC) [µM] | GI50 (K-562 leukemia) [µM] | GI50 (OVCAR-8 ovarian) [µM] | GI50 (MCF7 breast) [µM] | GI50 (SK-MEL-2 melanoma) [µM]
1 | O=C1c2cccc3cccc(c23)C(=O)N1CCCNCCCCNCCCNCCCN1C(=O)c2cccc3cccc(c23)C1=O | 2.76 | 2.36 | 2.37 | 3.64 | 1.54 | 3.6 | 3.79 | 3.99 | 0.599 | 2.75 |  |  |  |  |  |  |  |  |  | 
2 | O=C(O)c1cccc(S(=O)(=O)NN2C(=O)CSC2c2ccc(Cl)cc2Cl)c1 (stereo not drawn) | > 100 | > 100 | > 100 | > 100 | 34 | > 100 | > 100 | 30.2 | > 100 | > 100 |  |  |  |  |  |  |  |  |  | 
3 | C=CCn1c(=O)ccn(/C(=C/C(=O)OCC)C(=O)OCC)c1=O | 29.9 | 26 | 9.15 | 28.1 | 3.98 | 44.4 | 12.5 | 31.5 | 17.1 | 34.3 |  |  |  |  |  |  |  |  |  | 
4 | CCN(C(=O)N[C@@H](C)C(=O)N[C@@H](Cc1ccccc1)C(=O)OC)c1ccccc1 | > 100 | > 100 | 68 | > 100 | > 100 | > 100 | > 100 | > 100 | > 100 | > 100 |  |  |  |  |  |  |  |  |  | 
5 | O=C(CCSC1=NCCCN1)c1ccc(F)cc1 | 29.9 | 49.1 | 40.6 | 32.4 | 30.4 | > 68.9 | 10.1 | > 94.3 | 20.4 | 36.5 |  |  |  |  |  |  |  |  |  | 
6 | CCOC(=O)CC/C(=N/Nc1ccc(Cl)cc1[N+](=O)[O-])C(=O)OCC | > 100 | > 100 | > 100 | > 100 | > 100 | > 100 | > 100 | > 100 | > 100 | > 100 |  |  |  |  |  |  |  |  |  | 
7 | COc1ccc(/C=N/NC(=O)c2ccc(O)c(CN(C)C)c2)cc1 | > 100 | > 100 | > 100 | > 100 | > 100 | > 100 | > 100 | > 100 | > 100 | > 100 |  |  |  |  |  |  |  |  |  | 
8 | COc1cc2c(cc1OCCCCCN1CCN(c3ncnc4ccccc34)CC1)N=CC1CCCN1C2=O (stereo not drawn) | 14.7 | 0.0604 | 0.069 | 0.128 |  | 0.358 |  | > 81.9 | 0.923 | 0.709 | 0.0359 | 0.0193 | 0.0224 | 0.032 | 0.0254 | 0.0257 | < 0.0174 | 0.0334 | 0.0162 | 0.0425
9 | CC1OC(O[C@H]2C3C=CO[C@@H](OC4OC(CO)C(O)C(O)C4O)C3[C@@]3(COC(=O)/C=C/c4ccccc4)O[C@@H]23)C(O)C(O)C1O (stereo partly drawn) | > 100 | > 100 | > 100 | > 100 | > 100 | > 100 | > 100 | > 100 | > 100 | > 100 |  |  |  |  |  |  |  |  |  | 
10 | CCOC(=O)c1c2cccccc-2nc1Nc1cccc2c(C)ccnc12 | > 10 | > 10 | > 10 | > 10 | > 10 | > 10 | > 10 | > 10 | > 10 | > 10 |  |  |  |  |  |  |  |  |  | 
11 | CC(NC(=O)C(C)(C)NC(=O)C(CC(=O)OCc1ccccc1)NC(=O)OCc1ccccc1)C(N)=O (stereo not drawn) (Cbz-Asp(OBn)-[Aib]-Ala-NH2; configuration not given here) | > 100 | > 100 | > 100 | > 100 | > 100 | > 100 | > 100 | > 100 | > 100 | > 100 |  |  |  |  |  |  |  |  |  | 
12 | CCCCCCCCCCCCCCCC(=O)N1CCCC1C(=O)NCC(=O)NC(Cc1ccccc1)C(=O)N1CCCC1C(=O)NC(CO)C(=O)NC(Cc1ccc(O)cc1)C(=O)NC(CCCCN)C(=O)NC(CC(C)C)C(=O)NC(CCCN=C(N)N)C(=O)N1CCCC1C(=O)NCC(N)=O (stereo not drawn) (Palmitoyl-PGFPSYKLRPG-NH2; configuration not given here) | 37.8 | 32.8 | 38.9 | 27.3 | 52.9 | 48 | 38.5 | 55.4 | 35.3 | > 100 | 17.1 | 17.5 | 18.7 | 14.2 | 18.7 | 22.9 | 14.3 | 22.1 | 15 | 46.2
13 | CC(C)N1CCN(c2ccc(OCC3COC(Cn4cncn4)(c4ccc(Cl)cc4Cl)O3)cc2)CC1 (stereo not drawn) | 29.8 | 28.5 | 30.8 | > 20 | 33.3 | 28.5 | 19.8 | 39.2 | 28.9 | 30.5 |  |  |  |  |  |  |  |  |  | 
14 | Cc1ccsc1/C=N/Nc1cnccn1 | > 100 | > 100 | > 100 | > 100 | > 100 | > 100 | > 100 | > 100 | > 100 | > 100 |  |  |  |  |  |  |  |  |  | 
15 | CC1=C(C#N)c2nc3ccccc3n2C(=O)C1(C)CCO (stereo not drawn) | > 100 | > 100 | > 100 | > 100 | > 100 | > 100 | > 100 | > 100 | > 100 | > 100 |  |  |  |  |  |  |  |  |  | 
16 | COc1ccc(C(=O)NCCN(C)C)c2nc3ccccc3cc12 | 8.06 | 10.9 | 8.05 | 2.99 | 2.15 | 2.72 | 12.5 | 4.67 | 3.99 | 7.46 |  |  |  |  |  |  |  |  |  | 

Row | SMILES | TGI (OVCAR-5 ovarian) [µM] | TGI (MDA-MB-231 breast) [µM] | TGI (HOP-92 NSCLC) [µM] | TGI (M14 melanoma) [µM] | TGI (HL-60(TB) leukemia) [µM] | TGI (HOP-62 NSCLC) [µM] | TGI (K-562 leukemia) [µM] | TGI (OVCAR-8 ovarian) [µM] | TGI (MCF7 breast) [µM] | TGI (SK-MEL-2 melanoma) [µM] | GI50 (OVCAR-5 ovarian) [µM] | GI50 (MDA-MB-231 breast) [µM] | GI50 (HOP-92 NSCLC) [µM] | GI50 (M14 melanoma) [µM] | GI50 (HL-60(TB) leukemia) [µM] | GI50 (HOP-62 NSCLC) [µM] | GI50 (K-562 leukemia) [µM] | GI50 (OVCAR-8 ovarian) [µM] | GI50 (MCF7 breast) [µM] | GI50 (SK-MEL-2 melanoma) [µM]
17 | Nc1ncnc2c1ccn2C/C=C/CO | > 100 | > 100 | > 100 | > 100 | > 100 | > 100 | > 100 | > 100 | > 100 | > 100 |  |  |  |  |  |  |  |  |  | 
18 | CC(C)(C)OC(=O)NC(CSSCC(NC(=O)OC(C)(C)C)C(=O)O)C(=O)O (stereo not drawn) | > 100 | > 100 | > 100 | > 100 | > 100 | > 100 | > 100 | > 100 | > 100 | > 100 |  |  |  |  |  |  |  |  |  | 
19 | O=C(O)C(O)C(O)C(O)C(O)CO (stereo not drawn) | > 100 | > 100 | > 100 | > 100 | > 100 | > 100 | > 100 | > 100 | > 100 | > 100 |  |  |  |  |  |  |  |  |  | 
20 | OCCCc1ccc2c(c1)[C@H](CO)[C@@H](c1ccc(O)cc1)O2 | > 100 | > 100 | > 100 | > 100 | > 100 | > 100 | > 100 | > 100 | > 100 | > 100 |  |  |  |  |  |  |  |  |  | 
21 | Cc1ccc(/C=C2/N=C(N/N=C\C(O)C(O)C(O)C(O)CO)NC2=O)cc1 (stereo not drawn) | > 100 | > 100 | > 100 | > 100 | > 100 | > 100 | > 100 | > 100 | > 100 | > 100 |  |  |  |  |  |  | > 100 |  |  | 
22 | CN(C)Cc1cc(C(=O)/C=C/c2ccc([N+](=O)[O-])cc2)cc(CN(C)C)c1O | 34.5 | 28.5 | 26.2 | 23.3 | 5.46 | 19.5 | > 100 | > 100 | 34.9 | 30.1 |  |  |  |  |  |  |  |  |  | 
23 | CCN(CC)c1ccc(/C=C/c2ccnc3ccccc23)cc1 | > 100 | > 100 | > 100 | > 100 | > 100 | > 100 | > 100 |  | > 100 | > 100 |  |  |  |  |  |  |  |  |  | 
24 | Nc1ncc2c(n1)-c1ccccc1OC2N1CCCC1 (stereo not drawn) | > 100 | > 100 | > 100 | > 100 | 51.7 | > 100 | > 100 | > 100 | > 100 | > 100 |  |  |  |  |  |  |  |  |  | 
25 | CO/N=C(/C(=O)OC)c1ccccc1COc1ccccc1C(F)(F)F | > 100 | > 100 | > 100 | > 100 | 51.3 | > 100 | > 100 | > 100 | > 100 | 73.2 |  |  |  |  |  |  |  |  |  | 
26 | Cc1nc2ccccc2c(-n2cccn2)c1CCn1cccn1 | > 100 | > 100 | > 100 | > 100 | > 100 | > 100 | > 100 | > 100 | > 100 | > 100 |  |  |  |  |  |  |  |  |  | 
27 | Cc1ccc2c(c1)c1ccc3c(c1n2C)C(=O)C=CC3=O | > 10 | 6.01 | 3.92 | 4.54 | 1.69 | > 10 | 2.31 | 6.01 | 4.99 | > 10 |  |  |  |  |  |  |  |  |  | 
28 | CC12c3c4ccc(C=O)c3Oc3ccc(C=O)c(c31)Oc1ccc(C=O)c(c12)O4 | > 25 | > 25 | > 25 | > 25 | > 25 | > 25 | > 25 | > 25 | > 25 | > 25 |  |  |  |  |  |  |  |  |  | 
29 | COc1ccc(-c2nc3ccccc3c(=S)n2OC(C)=O)cc1 | > 25 | > 25 | > 25 | > 25 | 17.2 | > 25 | > 25 | > 25 | > 25 | > 25 |  |  |  |  |  |  |  |  |  | 
30 | CC(C)(C)N=C(N)NC#N | > 100 | > 100 | > 100 | > 100 | > 100 | > 100 | > 100 | > 100 | > 100 | > 100 |  |  |  |  |  |  |  |  |  | 
31 | CN1CC[C@]2(c3cccc(O)c3)CC(=O)/C(=C/c3ccccc3)[C@@H]1C2 | 29.7 | 7.29 | 9.93 | 12.1 | 5.33 | 12.7 | 4.01 | 10.5 | 6.06 | 13 |  |  |  |  |  |  |  |  |  | 
